What was measured:
Type in all cases: in vivo
[1] = system: ducksalad (Heteranthera limosa); test: Test B flooded paddy test; details: Heteranthera limosa, 250 g ai/ha, Flood; 0 to 100 scale where 0 is no effect and 100 is complete control; read-out: Ducksalad plant response rating
Method in brief: (§1)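 Plants at 2-leaf stage flooded to 3 cm above soil, with compounds applied directly to paddy water and that depth maintained. Plants kept in greenhouse 13–15 d. Visual rating versus controls on a 0 (no effect) to 100 (complete control) scale.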

[2] = system: sedge, umbrella (small-flower umbrella sedge, Cyperus difformis); test: Test B flooded paddy test; details: Cyperus difformis, 250 g ai/ha, Flood; 0 to 100 scale where 0 is no effect and 100 is complete control; read-out: Sedge, Umbrella plant response rating
Method in brief: as §1

[3] = system: barnyardgrass (Echinochloa crus-galli); test: Test B flooded paddy test; details: Echinochloa crus-galli, 250 g ai/ha, Flood; 0 to 100 scale where 0 is no effect and 100 is complete control; read-out: Barnyardgrass plant response rating
Method in brief: as §1

[4] = system: rice (Oryra sativa); test: Test B flooded paddy test; details: Oryza sativa, 250 g ai/ha, Flood; 0 to 100 scale where 0 is no effect and 100 is complete control; read-out: Rice plant response rating
Method in brief: as §1

[5] = system: Galium (catchweed bedstraw, Galium aparine); test: Test A postemergence; details: Galium, post-emergence, 240 h; for pest or weed control at 125 g/ha: 125 g ai/ha, postemergence, visual injury vs untreated controls after approx. 10 d, 0 = no effect, 100 = complete control, read-out: Galium plant response rating (0 to 100 scale); for pest or weed control at 31 g/ha: Postemergence, 31 g ai/ha, visual injury after approx. 10 d, 0 to 100 scale, 0 no effect, 100 complete control, read-out: Plant response rating, Galium
Method in brief: (§2)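 Preemergence directed soil spray on seeded pots, or postemergence application to plants 2–10 cm, one- to two-leaf. Solvent mixture non-phytotoxic, with surfactant. Scored ~10 d later, visually, 0–100 vs untreated.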

[6] = system: wheat (Triticum aestivum); test: Test A postemergence; details: Triticum aestivum, post-emergence, 240 h, 125 g ai/ha, postemergence, visual injury vs untreated controls after approx. 10 d; 0 = no effect, 100 = complete control; read-out: Wheat plant response rating (0 to 100 scale)
Method in brief: as §2

[7] = system: ryegrass, Italian (Italian ryegrass, Lolium multiflorum); test: Test A postemergence; details: Lolium multiflorum, post-emergence, 240 h, 125 g ai/ha, postemergence, visual injury vs untreated controls after approx. 10 d; 0 = no effect, 100 = complete control; read-out: Ryegrass, Italian plant response rating (0 to 100 scale)
Method in brief: as §2

[8] = system: pigweed (Amaranthus retroflexus); test: Test A postemergence; details: Amaranthus retroflexus, post-emergence, 240 h, 125 g ai/ha, postemergence, visual injury vs untreated controls after approx. 10 d; 0 = no effect, 100 = complete control; read-out: Pigweed plant response rating (0 to 100 scale)
Method in brief: as §2

[9] = system: giant foxtail (Setaria faberii); test: Test A postemergence; details: Setaria faberi, post-emergence, 240 h; for pest or weed control at 125 g/ha: 125 g ai/ha, postemergence, visual injury vs untreated controls after approx. 10 d, 0 = no effect, 100 = complete control, read-out: Foxtail, Giant plant response rating (0 to 100 scale); for pest or weed control at 31 g/ha: Postemergence, 31 g ai/ha, visual injury after approx. 10 d, 0 to 100 scale, 0 no effect, 100 complete control, read-out: Plant response rating, Foxtail, Giant
Method in brief: as §2

[10] = system: barnyardgrass (Echinochloa crus-galli); test: Test A postemergence; details: Echinochloa crus-galli, post-emergence, 240 h; for pest or weed control at 125 g/ha: 125 g ai/ha, postemergence, visual injury vs untreated controls after approx. 10 d, 0 = no effect, 100 = complete control, read-out: Barnyardgrass plant response rating (0 to 100 scale); for pest or weed control at 31 g/ha: Postemergence, 31 g ai/ha, visual injury after approx. 10 d, 0 to 100 scale, 0 no effect, 100 complete control, read-out: Plant response rating, Barnyardgrass
Method in brief: as §2

[11] = system: Kochia (Kochia scoparia); test: Test A postemergence; details: Bassia scoparia, post-emergence, 240 h; for pest or weed control at 125 g/ha: 125 g ai/ha, postemergence, visual injury vs untreated controls after approx. 10 d, 0 = no effect, 100 = complete control, read-out: Kochia plant response rating (0 to 100 scale); for pest or weed control at 31 g/ha: Postemergence, 31 g ai/ha, visual injury after approx. 10 d, 0 to 100 scale, 0 no effect, 100 complete control, read-out: Plant response rating, Kochia
Method in brief: as §2

[12] = system: corn (Zea mays); test: Test A postemergence; details: Zea mays, post-emergence, 240 h; for plant injury at 125 g/ha: 125 g ai/ha, postemergence, visual injury vs untreated controls after approx. 10 d, 0 = no effect, 100 = complete control, read-out: Corn plant response rating (0 to 100 scale); for Corn plant response rating (crop injury, 0 = no effect, 100 = complete kill) at 31 g/ha: Postemergence, 31 g ai/ha, visual injury after approx. 10 d, 0 to 100 scale, 100 complete control
Method in brief: as §2

[13] = system: ragweed (common ragweed, Ambrosia elatior); test: Test A postemergence; details: Ambrosia artemisiifolia, post-emergence, 240 h, 125 g ai/ha, postemergence, visual injury vs untreated controls after approx. 10 d; 0 = no effect, 100 = complete control; read-out: Ragweed plant response rating (0 to 100 scale)
Method in brief: as §2

[14] = system: blackgrass (Alopecurus myosuroides); test: Test A postemergence; details: Alopecurus myosuroides, post-emergence, 240 h; for pest or weed control at 125 g/ha: 125 g ai/ha, postemergence, visual injury vs untreated controls after approx. 10 d, 0 = no effect, 100 = complete control, read-out: Blackgrass plant response rating (0 to 100 scale); for pest or weed control at 31 g/ha: Postemergence, 31 g ai/ha, visual injury after approx. 10 d, 0 to 100 scale, 0 no effect, 100 complete control, read-out: Plant response rating, Blackgrass
Method in brief: as §2

[15] = system: ryegrass, Italian (Italian ryegrass, Lolium multiflorum); test: Test A preemergence; details: Lolium multiflorum, pre-emergence, 240 h, 0 to 100 scale where 0 is no effect and 100 is complete control, read-out: Ryegrass, Italian plant response rating; for pest or weed control at 31 g/ha: 31 g ai/ha, Preemergence; for pest or weed control at 125 g/ha: 125 g ai/ha, preemergence
Method in brief: as §2

[16] = system: pigweed (Amaranthus retroflexus); test: Test A preemergence; details: Amaranthus retroflexus, pre-emergence, 240 h, 0 to 100 scale where 0 is no effect and 100 is complete control, read-out: Pigweed plant response rating; for pest or weed control at 31 g/ha: 31 g ai/ha, Preemergence; for pest or weed control at 125 g/ha: 125 g ai/ha, preemergence
[17] = system: giant foxtail (Setaria faberii); test: Test A preemergence; details: Setaria faberi, pre-emergence, 240 h, 0 to 100 scale where 0 is no effect and 100 is complete control, read-out: Foxtail, Giant plant response rating; for pest or weed control at 31 g/ha: 31 g ai/ha, Preemergence; for pest or weed control at 125 g/ha: 125 g ai/ha, preemergence
Method in brief: as §2

[18] = system: barnyardgrass (Echinochloa crus-galli); test: Test A preemergence; details: Echinochloa crus-galli, pre-emergence, 240 h, 0 to 100 scale where 0 is no effect and 100 is complete control, read-out: Barnyardgrass plant response rating; for pest or weed control at 31 g/ha: 31 g ai/ha, Preemergence; for pest or weed control at 125 g/ha: 125 g ai/ha, preemergence
Method in brief: as §2

[19] = system: Kochia (Kochia scoparia); test: Test A preemergence; details: Bassia scoparia, pre-emergence, 240 h, 0 to 100 scale where 0 is no effect and 100 is complete control, read-out: Kochia plant response rating; for pest or weed control at 31 g/ha: 31 g ai/ha, Preemergence; for pest or weed control at 125 g/ha: 125 g ai/ha, preemergence
Method in brief: as §2

[20] = system: ragweed (common ragweed, Ambrosia elatior); test: Test A preemergence; details: Ambrosia artemisiifolia, pre-emergence, 240 h, 0 to 100 scale where 0 is no effect and 100 is complete control, read-out: Ragweed plant response rating; for pest or weed control at 31 g/ha: 31 g ai/ha, Preemergence; for pest or weed control at 125 g/ha: 125 g ai/ha, preemergence
Method in brief: as §2

[21] = visual injury rating, approximately 10 d

Row | SMILES | pest or weed control at 250 g/ha [1] [%] | pest or weed control at 250 g/ha [2] [%] | pest or weed control at 250 g/ha [3] [%] | pest or weed control at 250 g/ha [4] [%] | pest or weed control at 125 g/ha [5] [%] | pest or weed control at 31 g/ha [5] [%] | plant injury at 125 g/ha [6] [%] | pest or weed control at 125 g/ha [7] [%] | pest or weed control at 125 g/ha [8] [%] | pest or weed control at 125 g/ha [9] [%] | pest or weed control at 31 g/ha [9] [%] | pest or weed control at 125 g/ha [10] [%] | pest or weed control at 31 g/ha [10] [%] | pest or weed control at 125 g/ha [11] [%] | pest or weed control at 31 g/ha [11] [%] | plant injury at 125 g/ha [12] [%] | Corn plant response rating (crop injury, 0 = no effect, 100 = complete kill) at 31 g/ha [12] [%] | pest or weed control at 125 g/ha [13] [%] | pest or weed control at 125 g/ha [14] [%] | pest or weed control at 31 g/ha [14] [%] | further results
1 | CN1C[C@H](c2cc(F)cc(C(F)(F)F)c2)[C@@H](C(=O)Nc2cccnc2F)C1=O [Compound 1176] | 95 | 0 | 95 | 0 | 50 | 30 | 90 | 30 | 0 | 80 | 80 | 90 | 80 | 40 | 0 | 90 | 50 | 30 | 70 | 50 | pest or weed control at 31 g/ha [15]: 40%; pest or weed control at 125 g/ha ([15]; approx. 10 d): 50%; pest or weed control at 31 g/ha [16]: 0%; pest or weed control at 125 g/ha ([16]; approx. 10 d): 40%; pest or weed control at 31 g/ha [17]: 90%; pest or weed control at 125 g/ha ([17]; approx. 10 d): 90%; pest or weed control at 31 g/ha [18]: 90%; pest or weed control at 125 g/ha ([18]; approx. 10 d): 90%; pest or weed control at 31 g/ha [19]: 0%; pest or weed control at 125 g/ha ([19]; approx. 10 d): 40%; pest or weed control at 31 g/ha [20]: 0%; pest or weed control at 125 g/ha ([20]; approx. 10 d): 0%
2 | COc1ccc(C(F)(F)F)cc1[C@H]1CN(C)C(=O)[C@@H]1C(=O)Nc1ccccc1F [Compound 1183] | 95 | 0 | 95 | 10 | 0 | 0 | 50 | 50 | 0 | 80 | 70 | 90 | 80 | 0 | 0 | 60 | 30 | 0 | 50 | 0 | pest or weed control at 31 g/ha [15]: 20%; pest or weed control at 125 g/ha [15, 21]: 50%; pest or weed control at 31 g/ha [16]: 0%; pest or weed control at 125 g/ha [16, 21]: 0%; pest or weed control at 31 g/ha [17]: 80%; pest or weed control at 125 g/ha [17, 21]: 90%; pest or weed control at 31 g/ha [18]: 90%; pest or weed control at 125 g/ha [18, 21]: 90%; pest or weed control at 31 g/ha [19]: 0%; pest or weed control at 125 g/ha [19, 21]: 0%; pest or weed control at 31 g/ha [20]: 0%; pest or weed control at 125 g/ha [20, 21]: 0%
